Experimental data published in patent publication US20070281992A1, “COMBINATION OF GYRASE B INHIBITORS AND PROTEIN SYNTHESIS INHIBITORS AND USES THEREOF” (priority 2006, published 2007).
Where two headings read alike, the source gives them in different places.

Key:
Format in all cases: cell-based
[1] = test system: Methicillin-Susceptible Staphylococcus aureus Isolates; experiment: MIC assay (NCCLS broth dilution), MSSA clinical isolates; settings: for MIC: Staphylococcus aureus
Protocol: (§1) Antibiotics: novobiocin, tetracycline, minocycline, oxacillin, and vancomycin were all purchased from Sigma-Aldrich. Linezolid was obtained from Pfizer, Inc. Novobiocin/tetracycline and novobiocin/minocycline were tested in a 2.5:1 ratio to mimic the serum levels. (Vavra, J. J., 1967, Development of resistance to novobiocin, tetracycline, and novobiocin-tetracycline combinations in Staphylococcus aureus populations, J. Bacteriol 93(3):801). Compounds were tested across a concentration range consisting of 11 two-fold serial dilutions of test agent.
(§2) Stock solutions were prepared in sterile deionized water; novobiocin stock concentration was 1600 μg/mL and all other drugs stock solutions were prepared at 640 μg/mL. The stock solutions were allowed to sit at room temperature for one hour to auto-sterilize prior to use in the test. All compounds were in solution in water. The control agent was vancomycin hydrochloride, Sigma Chemical Lot # 015K0825.
(§3) The test organisms for the assay were 52 MSSA, 52 MRSA, 8 VISA, 7 VISE, and 3 LRSA isolates. Quality control strains included Staphylococcus aureus 0100 (ATCC 29213) and Enterococcus faecalis (ATCC 29212).
(§4) The MIC assay was performed according to published NCCLS guidelines. (National Committee for Clinical Laboratory Standards, Methods for Dilution Antimicrobial Susceptibility Tests for Bacteria that Grow Aerobically; Approved Standard-Sixth Edition, NCCLS Document M7-A6 [ISBN 1-56238-486-4], NCCLS, 940 West Valley Road, Suite 1400, Wayne, Pa. 19087-1898 USA, 2003). The test medium was Mueller Hinton II Broth for all organisms.

[2] = test system: Vancomycin-intermediate Staphylococcus aureus Isolates; experiment: MIC assay (NCCLS broth dilution), VISA isolates
Protocol: as §1, §2, §3, §4

[3] = test system: Unconfirmed Vancomycin-intermediate Staphylococcus aureus Isolates; experiment: MIC assay (NCCLS broth dilution), unconfirmed VISA isolates
Protocol: as §1, §2, §3, §4

[4] = test system: Vancomycin-intermediate Staphylococcus epidermidis Isolates; experiment: MIC assay (NCCLS broth dilution), VISE isolates
Protocol: as §1, §2, §3, §4

[5] = test system: Linezolid-Resistant Staphylococcus aureus Isolates; experiment: MIC assay (NCCLS broth dilution), LRSA isolates; settings: for MIC: Staphylococcus aureus
Protocol: as §1, §2, §3, §4

[6] = test system: Unconfirmed Vancomycin-intermediate Staphylococcus epidermidis Isolates; experiment: MIC assay (NCCLS broth dilution), unconfirmed VISE isolates; settings: for MIC: Staphylococcus epidermidis
Protocol: as §1, §2, §3, §4

[7] = test system: Enterococcus faecalis (ATCC 29212); experiment: MIC assay, quality control strain E. faecalis ATCC 29212; settings: ATCC29212, read-out: Minimal Inhibitory Concentration, quality control, E. faecalis ATCC 29212, repeat runs 22FEB06-09MAR06, combinations at 2.5:1
Protocol: as §1, §2, §3, §4

[8] = Staphylococcus aureus, read-out: Minimal Inhibitory Concentration

With `CN[C@H](CC(C)C)C(=O)N[C@H]1C(=O)N[C@@H](CC(N)=O)C(=O)N[C@H]2C(=O)N[C@H]3C(=O)N[C@H](C(=O)N[C@H](C(=O)O)c4cc(O)cc(O)c4-c4cc3ccc4O)[C@H](O)c3ccc(c(Cl)c3)Oc3cc2cc(c3O[C@@H]2O[C@H](CO)[C@@H](O)[C@H](O)[C@H]2O[C@H]2C[C@](C)(N)[C@H](O)[C@H](C)O2)Oc2ccc(cc2Cl)[C@H]1O` [VA, vancomycin] the “MIC Range” value ([1]; 52 MSSA isolates, Mueller Hinton II Broth, combinations at 2.5:1, given as NB/partner) was “.5 to 1 µg/mL”, the MIC ([1]; read-out: Minimal Inhibitory Concentration, MSSA isolate 133, 03MAR06) was 0.5 µg/mL and the MIC ([1]; read-out: Minimal Inhibitory Concentration, MSSA isolate 134, 03MAR06) was 0.5 µg/mL. For the same molecule, the MIC ([1]; read-out: Minimal Inhibitory Concentration, MSSA isolate 135, 03MAR06) was 1 µg/mL, the MIC ([1]; read-out: Minimal Inhibitory Concentration, MSSA isolate 753, 22FEB06) was 0.5 µg/mL and the MIC ([1]; read-out: Minimal Inhibitory Concentration, MSSA isolate 754, 22FEB06) was 0.5 µg/mL. For the same molecule, the MIC ([1]; read-out: Minimal Inhibitory Concentration, MSSA isolate 754, 24FEB06) was 0.5 µg/mL, the MIC ([1]; read-out: Minimal Inhibitory Concentration, MSSA isolate 755, 22FEB06) was 1 µg/mL and the MIC ([1]; read-out: Minimal Inhibitory Concentration, MSSA isolate 756, 03MAR06) was 0.5 µg/mL. The MIC ([1]; read-out: Minimal Inhibitory Concentration, MSSA isolate 779, 22FEB06) was 0.5 µg/mL, the MIC ([1]; read-out: Minimal Inhibitory Concentration, MSSA isolate 780, 03MAR06) was 1 µg/mL and the MIC ([1]; read-out: Minimal Inhibitory Concentration, MSSA isolate 781, 03MAR06) was 0.5 µg/mL. The MIC ([1]; read-out: Minimal Inhibitory Concentration, MSSA isolate 782, 22FEB06) was 1 µg/mL, the MIC ([1]; read-out: Minimal Inhibitory Concentration, MSSA isolate 783, 22FEB06) was 1 µg/mL and the MIC ([1]; read-out: Minimal Inhibitory Concentration, MSSA isolate 784, 22FEB06) was 0.5 µg/mL. It also gave an MIC ([1]; read-out: Minimal Inhibitory Concentration, MSSA isolate 785, 22FEB06) of 0.5 µg/mL, an MIC ([1]; read-out: Minimal Inhibitory Concentration, MSSA isolate 786, 22FEB06) of 0.5 µg/mL and an MIC ([1]; read-out: Minimal Inhibitory Concentration, MSSA isolate 787, 22FEB06) of 0.5 µg/mL. For the same molecule, the MIC ([1]; read-out: Minimal Inhibitory Concentration, MSSA isolate 788, 22FEB06) was 0.5 µg/mL, the MIC ([1]; read-out: Minimal Inhibitory Concentration, MSSA isolate 789, 24FEB06) was 1 µg/mL and the MIC ([1]; read-out: Minimal Inhibitory Concentration, MSSA isolate 790, 24FEB06) was 0.5 µg/mL. It also gave an MIC ([1]; read-out: Minimal Inhibitory Concentration, MSSA isolate 791, 24FEB06) of 0.5 µg/mL, an MIC ([1]; read-out: Minimal Inhibitory Concentration, MSSA isolate 792, 03MAR06) of 0.5 µg/mL and an MIC ([1]; read-out: Minimal Inhibitory Concentration, MSSA isolate 793, 24FEB06) of 0.5 µg/mL. For the same molecule, the MIC ([1]; read-out: Minimal Inhibitory Concentration, MSSA isolate 794, 24FEB06) was 1 µg/mL, the MIC ([1]; read-out: Minimal Inhibitory Concentration, MSSA isolate 994, 22FEB06) was 1 µg/mL and the MIC ([1]; read-out: Minimal Inhibitory Concentration, MSSA isolate 995, 03MAR06) was 1 µg/mL. For the same molecule, the MIC ([1]; read-out: Minimal Inhibitory Concentration, MSSA isolate 996, 22FEB06) was 0.5 µg/mL, the MIC ([1]; read-out: Minimal Inhibitory Concentration, MSSA isolate 997, 22FEB06) was 1 µg/mL and the MIC ([1]; read-out: Minimal Inhibitory Concentration, MSSA isolate 998, 03MAR06) was 1 µg/mL. It also gave an MIC ([1]; read-out: Minimal Inhibitory Concentration, MSSA isolate 999, 22FEB06) of 0.5 µg/mL, an MIC ([1]; read-out: Minimal Inhibitory Concentration, MSSA isolate 1000, 24FEB06) of 1 µg/mL and an MIC ([1]; read-out: Minimal Inhibitory Concentration, MSSA isolate 1001, 24FEB06) of 1 µg/mL. It also gave an MIC ([1]; read-out: Minimal Inhibitory Concentration, MSSA isolate 1002, 24FEB06) of 0.5 µg/mL, an MIC ([1]; read-out: Minimal Inhibitory Concentration, MSSA isolate 1003, 03MAR06) of 0.5 µg/mL and an MIC ([1]; read-out: Minimal Inhibitory Concentration, MSSA isolate 1005, 24FEB06) of 1 µg/mL. It also gave an MIC ([1]; read-out: Minimal Inhibitory Concentration, MSSA isolate 1006, 24FEB06) of 1 µg/mL, an MIC ([1]; read-out: Minimal Inhibitory Concentration, MSSA isolate 1007, 24FEB06) of 1 µg/mL and an MIC ([1]; read-out: Minimal Inhibitory Concentration, MSSA isolate 1008, 24FEB06) of 0.5 µg/mL. For the same molecule, the MIC ([1]; read-out: Minimal Inhibitory Concentration, MSSA isolate 1009, 24FEB06) was 0.5 µg/mL, the MIC ([1]; read-out: Minimal Inhibitory Concentration, MSSA isolate 1131, 24FEB06) was 1 µg/mL and the MIC ([1]; read-out: Minimal Inhibitory Concentration, MSSA isolate 1132, 03MAR06) was 0.5 µg/mL. It also gave an MIC ([1]; read-out: Minimal Inhibitory Concentration, MSSA isolate 1133, 24FEB06) of 0.5 µg/mL, an MIC ([1]; read-out: Minimal Inhibitory Concentration, MSSA isolate 1134, 24FEB06) of 0.5 µg/mL and an MIC ([1]; read-out: Minimal Inhibitory Concentration, MSSA isolate 1654, 03MAR06) of 0.5 µg/mL. For the same molecule, the MIC ([1]; read-out: Minimal Inhibitory Concentration, MSSA isolate 1656, 03MAR06) was 0.5 µg/mL, the MIC ([1]; read-out: Minimal Inhibitory Concentration, MSSA isolate 1662, 03MAR06) was 0.5 µg/mL and the MIC ([1]; read-out: Minimal Inhibitory Concentration, MSSA isolate 1663, 03MAR06) was 1 µg/mL. For the same molecule, the MIC ([1]; read-out: Minimal Inhibitory Concentration, MSSA isolate 1666, 03MAR06) was 0.5 µg/mL, the MIC ([1]; read-out: Minimal Inhibitory Concentration, MSSA isolate 1667, 03MAR06) was 1 µg/mL and the MIC ([1]; read-out: Minimal Inhibitory Concentration, MSSA isolate 1668, 03MAR06) was 0.5 µg/mL. The MIC ([1]; read-out: Minimal Inhibitory Concentration, MSSA isolate 1671, 03MAR06) was 1 µg/mL, the MIC ([1]; read-out: Minimal Inhibitory Concentration, MSSA isolate 1728, 03MAR06) was 1 µg/mL and the MIC ([1]; read-out: Minimal Inhibitory Concentration, MSSA isolate 1728, retest 09MAR06) was 1 µg/mL. For the same molecule, the “MIC Range” value ([2]; 2 VISA isolates, combinations at 2.5:1, given as NB/partner) was 8 µg/mL, the MIC [2, 8] was 8 µg/mL and the “Minimal Inhibitory Concentration” value ([2]; VISA isolate 2018, 03MAR06) was 8 µg/mL. For the same molecule, the “MIC Range” value ([3]; 6 unconfirmed VISA isolates (vancomycin MIC 4 ug/ml), combinations at 2.5:1) was 4 µg/mL, the MIC [3, 8] was 4 µg/mL and the “Minimal Inhibitory Concentration” value ([3]; Unconfirmed VISA isolate 2014, 03MAR06) was 4 µg/mL. For the same molecule, the “Minimal Inhibitory Concentration” value ([3]; Unconfirmed VISA isolate 2015, 03MAR06) was 4 µg/mL, the “Minimal Inhibitory Concentration” value ([3]; Unconfirmed VISA isolate 2016, 03MAR06) was 4 µg/mL and the “Minimal Inhibitory Concentration” value ([3]; Unconfirmed VISA isolate 2017, 03MAR06) was 4 µg/mL. The “Minimal Inhibitory Concentration” value ([3]; Unconfirmed VISA isolate 2019, 03MAR06) was 4 µg/mL, the “MIC Range” value ([4]; 4 VISE isolates, combinations at 2.5:1) was 8 µg/mL and the MIC ([4]; Staphylococcus epidermidis, read-out: Minimal Inhibitory Concentration) was 8 µg/mL. The “Minimal Inhibitory Concentration” value ([4]; VISE isolate 2020, 09MAR06) was 8 µg/mL, the “Minimal Inhibitory Concentration” value ([4]; VISE isolate 2021, 09MAR06) was 8 µg/mL and the “Minimal Inhibitory Concentration” value ([4]; VISE isolate 2023, 03MAR06) was 8 µg/mL. The “MIC Range” value ([5]; 3 LRSA isolates, combinations at 2.5:1) was 0.5 to 1 µg/mL, the MIC ([5]; read-out: Minimal Inhibitory Concentration, LRSA isolate 1651, 24FEB06) was 0.5 µg/mL and the MIC ([5]; read-out: Minimal Inhibitory Concentration, LRSA isolate 1652, 24FEB06) was 1 µg/mL. For the same molecule, the MIC ([5]; read-out: Minimal Inhibitory Concentration, LRSA isolate 1725, 24FEB06) was 1 µg/mL, the “MIC Range” value ([6]; 3 unconfirmed VISE isolates, combinations at 2.5:1) was 1 to 4 µg/mL and the MIC ([6]; read-out: Minimal Inhibitory Concentration, Unconfirmed VISE isolate 2024, 09MAR06) was 2 µg/mL. It also gave an MIC ([6]; read-out: Minimal Inhibitory Concentration, Unconfirmed VISE isolate 2025, 09MAR06) of 4 µg/mL, an MIC ([6]; read-out: Minimal Inhibitory Concentration, Unconfirmed VISE isolate 2026, 03MAR06) of 4 µg/mL and an MIC [7] of 2 µg/mL.
